Experimental data as given in patent US20050049204A1, “Compounds for the treatment of flaviviridae infections” (priority 2003, published 2005).
Read-outs that look alike come from different tables or passages of the source.

Tests used:
[1] = test system: HCV-replicon RNA-containing Huh7 cells (HCV RNA); assay: HCV replicon assay: HCV RNA quantified by Q-RT-PCR after 96 h of compound exposure; type: cell-based, hepatitis C virus (HCV); details: for Corrected HCV RNA log10 reduction at 10 μM / Corrected HCV RNA log10 reduction at 100 μM: corrected by subtraction of rRNA; for EC90: read-out: Corrected HCV RNA EC90; for log reduction at 100 µM: read-out: Corrected HCV RNA log10 reduction at 100 μM
Experimental: (§1) Incubation times differed according to the type of experiment.

[2] = test system: rRNA in HCV-replicon RNA-containing Huh7 cells; assay: rRNA levels in HCV replicon cells (cellular toxicity), Q-RT-PCR after 96 h
Experimental: HCV replicon cells were seeded in the presence of test compound at approximately 10^3 cells per well in a 96-well plate and incubated for 96 hours. rRNA and HCV RNA were quantified by Q-RT-PCR. ●: HCV RNA levels; ◯: rRNA levels; ▾: HCV RNA levels after correction (=subtraction of rRNA) for cellular toxicity. […] The plots shown are the mean results of at least three independent experiments. EC90 values as given in Table 1 are read from the HCV curves corrected for cellular toxicity.
HCV-replicon RNA-containing Huh7 cells (Clone A cells; Apath, LLC, St. Louis, Mo.) were kept in exponential growth in DMEM media (high glucose, no pyruvate) containing 10% fetal bovine serum, 1× non-essential amino acids (100 units/ml), penicillin-streptomycin (100 μg/ml), glutamine (0.292 mg/ml), and G418 (1,000 μg/ml). Antiviral assays were performed in the same medium without G418. […] Cells were seeded in a 6-well plate at 10^5 cells per well. Candidate antiviral compounds were tested as described (Stuyver, et al. “A ribonucleoside analogue that blocks the replication of bovine viral diarrhea and hepatitis C viruses in culture” Antimicrob. Agents Chemother., January 2003, 47 (1), 244-254). Incubation times differed according to the type of experiment. At the end of the incubation step, cells were counted using the trypan-blue exclusion method, and total cellular RNA was isolated (Rneasy 96 kit, Qiagen, CA). Replicon RNA and an internal control (TaqMan Ribosomal RNA Control Reagents, Applied Biosystems, CA) were amplified in a single-step, multiplex RT-PCR protocol, as recommended by the manufacturer and as described (Stuyver, et al. “A ribonucleoside analogue that blocks the replication of bovine viral diarrhea and hepatitis C viruses in culture” Antimicrob. Agents Chemother., January 2003, 47 (1), 244-254).
Replicon cells were incubated in the absence or presence of these anti-metabolites for 96 hours, after which intracellular rRNA and HCV RNA levels were quantified (Table 1).

[3] = test system: HCV replicon RNA in Huh7 cells; assay: Reversal studies with natural nucleosides: HCV RNA; type: cell-based, hepatitis C virus (HCV); details: for log10 reduction HCV: no nucleoside
Experimental: as §1
(§2) Cells were incubated with the test compound and, simultaneously, the natural ribo- or 2′-deoxy nucleosides (adenosine, guanosine (G), cytidine (C), uridine (U), 2′-deoxycytidine (dC), 2′-deoxyuridine, thymidine, 2′-deoxyguanosine (dG), and 2′-deoxyadenosine) (Table 2).

[4] = test system: rRNA in HCV replicon Huh7 cells; assay: Reversal studies with natural nucleosides: rRNA; type: cell-based; details: for log10 reduction rRNA: no nucleoside
Experimental: as §1, §2

[5] = test system: HCV replicon-containing Huh7 cell line; assay: Dynamics of replicon cell growth (cell count) over a 7-day period; details: seven-day assay, tested at approximately EC90 value
[6] = Hepatitis C virus, Huh-7, 96 h, read from HCV curves corrected for rRNA reduction
[7] = 96 h, read from HCV curves corrected for rRNA reduction

Row | Compound | Corrected HCV RNA log10 reduction at 10 μM ([1]; 96 h) [log10] | Corrected HCV RNA log10 reduction at 100 μM ([1]; 96 h) [log10] | EC90 ([1]; Hepatitis C virus, Huh-7, 96 h) [µM] | Log10 RNA reduction (100 μM) rRNA [2] [log10] | EC90 [1, 6] [µM] | Log10 RNA reduction (100 μM) HCV ([1]; 96 h) [log10] | EC90 [1, 7] [µM] | also measured
1 | O=C(O)C[C@H](NC(=O)CP(=O)(O)O)C(=O)O [PALA, N-(phosphonoacetyl)-L-aspartate] | 1.18 ± 0.11 | 1.30 ± 0.05 | 7.6 | 0.48 ± 0.02 | – | – | – | log10 reduction HCV including natural nucleoside ([3]; 100 μM + U at 50 μM): 0.14 ± 0.03 log10; log10 reduction HCV ([3]; 100 μM): 1.77 ± 0.02 log10; log10 reduction rRNA including natural nucleoside ([4]; 100 μM + U at 50 μM): −0.13 ± 0.10 log10; log10 reduction rRNA ([4]; 100 μM): 0.48 ± 0.02 log10; effect on cell growth [5]: minimal effect
2 | Nc1ccn([C@@H]2C=C(CO)[C@@H](O)[C@H]2O)c(=O)n1 [CPE-C, cyclopentenyl-cytosine] | – | – | – | 1.21 ± 0.16 | 2.5 | – | – | log10 reduction HCV including natural nucleoside ([3]; 2 μM + C at 50 μM): 0.30 ± 0.06 log10; log10 reduction HCV including natural nucleoside ([3]; 2 μM + U at 50 μM): 0.58 ± 0.04 log10; log10 reduction HCV ([3]; 2 μM): 1.76 ± 0.04 log10; log10 reduction rRNA including natural nucleoside ([4]; 2 μM + C at 50 μM): −0.04 ± 0.01 log10; log10 reduction rRNA including natural nucleoside ([4]; 2 μM + U at 50 μM): 0.32 ± 0.03 log10; log10 reduction rRNA ([4]; 2 μM): 0.99 ± 0.04 log10
3 | O=c1cnn([C@@H]2O[C@H](CO)[C@@H](O)[C@H]2O)c(=S)[nH]1 [2-thio-6-azauridine] | 0.12 ± 0.10 | 0.19 ± 0.09 | – | −0.02 ± 0.12 | – | 0.16 ± 0.04 | > 100 | effect on cytoplasmic HCV RNA metabolism ([1]; replicon system): little effect
4 | NC(=O)c1ncn([C@@H]2O[C@H](CO)[C@@H](O)[C@H]2O)c1O [Mizoribine] | −0.14 ± 0.12 | – | – | 0.21 ± 0.50 | > 100 | – | – | log reduction at 100 µM ([1]; Hepatitis C virus, Huh-7, 96 h): 0.08 ± 0.82
5 | Cyclopentyl-cytosine [CP-C] | 0.64 ± 0.10 | 1.06 ± 0.26 | – | 0.91 ± 0.13 | – | 1.97 ± 0.38 | 25 | log10 reduction HCV including natural nucleoside ([3]; 20 μM + C at 50 μM): 0.11 ± 0.01 log10; log10 reduction HCV ([3]; 20 μM): 1.80 ± 0.07 log10; log10 reduction HCV including natural nucleoside ([3]; 100 μM + C at 50 μM): 0.32 ± 0.11 log10; log10 reduction HCV ([3]; 100 μM): 2.32 ± 0.08 log10; log10 reduction rRNA including natural nucleoside ([4]; 20 μM + C at 50 μM): 0.02 ± 0.00 log10; log10 reduction rRNA ([4]; 20 μM): 0.87 ± 0.08 log10; log10 reduction rRNA including natural nucleoside ([4]; 100 μM + C at 50 μM): 0.17 ± 0.01 log10; log10 reduction rRNA ([4]; 100 μM): 1.21 ± 0.02 log10
6 | NC(=O)c1csc([C@@H]2O[C@H](CO)[C@@H](O)[C@H]2O)n1 [Tiazofurin, tiazofurin] | – | −0.13 ± 0.37 | > 100 | 0.99 ± 0.35 | – | 0.86 ± 0.27 | – | log reduction at 10 µM ([1]; Hepatitis C virus, Huh-7, 96 h, read-out: Corrected HCV RNA log10 reduction at 10 μM): 0.04 ± 0.1
7 | Nc1ccn([C@@H]2O[C@H](CO)[C@@H](O)C2(F)F)c(=O)n1 [dFdC, difluorodeoxycytidine] | 1.32 ± 0.08 | – | 0.17 | – | – | – | – | Corrected HCV RNA log10 reduction ([1]; dFdC tested at 50 μM, 96 h, corrected for rRNA): 1.29 ± 0.11 log10; Log10 RNA reduction rRNA ([2]; dFdC tested at 50 μM): 0.59 ± 0.05 log10; log10 reduction HCV including natural nucleoside ([3]; 1 μM + dC at 50 μM): 0.06 ± 0.00 log10; log10 reduction HCV ([3]; 1 μM): 1.89 ± 0.07 log10; log10 reduction rRNA including natural nucleoside ([4]; 1 μM + dC at 50 μM): 0.07 ± 0.02 log10; log10 reduction rRNA ([4]; 1 μM): 0.52 ± 0.03 log10
8 | Nc1ccn(C2OC(CO)C(O)C2=CF)c(=O)n1 (stereo not drawn) [Tezacytabine, tezacytabine] | 0.63 ± 0.07 | −0.19 ± 0.49 | – | 1.78 ± 0.69 | – | 1.59 ± 0.08 | > 100 | specific inhibition of the replicon ([1]; RNR inhibitors tested): none
9 | COc1c(C)c2c(c(O)c1C/C=C(\C)CCC(=O)O)C(=O)OC2 [MPA, mycophenolic acid] | 0.22 ± 0.01 | – | – | 1.09 ± 0.28 | > 100 | – | – | log reduction at 100 µM ([1]; Hepatitis C virus, Huh-7, 96 h): 0.07 ± 0.47
